Laboratory results as given in PubChem BioAssay AID1963863 (Molecular Pharmacology Branch, DTP, NCI, 2024).

Tested on: 931267-113-T-J1-PDC KRAS spheroid with HUVEC/MSC, viability
Assay: Anticancer human tumor 931267-113-T-J1-PDC patient-derived colon adenocarcinoma cell line growth inhibition [KRAS2]
Conditions: for IC50: curve of first compound; for viability, T/C: stronger effect = lower value
Method in brief: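 KRAS-mutant tumor cells were grown as spheroids with HUVEC endothelial cells and human MSCs as stroma. Targeted agents were tested alone and with KRAS pathway inhibitors. Doses started at or near clinical Cmax, or 10 microM, descending half-log.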

[1] = second compound 0.0316 µM, first compound 0.0316 µM
[2] = second compound 0.0316 µM, first compound 0.1 µM
[3] = second compound 0.0316 µM, first compound 0.316 µM
[4] = second compound 0.0316 µM, first compound 1 µM
[5] = second compound 0.0316 µM, first compound 3.16 µM
[6] = second compound 0.0316 µM, first compound 10 µM
[7] = second compound 0.1 µM, first compound 0.0316 µM
[8] = second compound 0.1 µM, first compound 0.1 µM
[9] = second compound 0.1 µM, first compound 0.316 µM
[10] = second compound 0.1 µM, first compound 1 µM
[11] = second compound 0.1 µM, first compound 3.16 µM
[12] = second compound 0.1 µM, first compound 10 µM
[13] = second compound 0.316 µM, first compound 0.0316 µM
[14] = second compound 0.316 µM, first compound 0.1 µM
[15] = second compound 0.316 µM, first compound 0.316 µM
[16] = second compound 0.316 µM, first compound 1 µM
[17] = second compound 0.316 µM, first compound 3.16 µM
[18] = second compound 0.316 µM, first compound 10 µM
[19] = second compound 1 µM, first compound 0.0316 µM
[20] = second compound 1 µM, first compound 0.1 µM
[21] = second compound 1 µM, first compound 0.316 µM
[22] = second compound 1 µM, first compound 1 µM
[23] = second compound 1 µM, first compound 3.16 µM
[24] = second compound 1 µM, first compound 10 µM
[25] = second compound 3.16 µM, first compound 0.0316 µM
[26] = second compound 3.16 µM, first compound 0.1 µM
[27] = second compound 3.16 µM, first compound 0.316 µM
[28] = second compound 3.16 µM, first compound 1 µM
[29] = second compound 3.16 µM, first compound 3.16 µM
[30] = second compound 3.16 µM, first compound 10 µM
[31] = second compound 0.0316 µM, first compound 0.000316 µM
[32] = second compound 0.0316 µM, first compound 0.001 µM
[33] = second compound 0.0316 µM, first compound 0.00316 µM
[34] = second compound 0.0316 µM, first compound 0.01 µM
[35] = second compound 0.1 µM, first compound 0.000316 µM
[36] = second compound 0.1 µM, first compound 0.001 µM
[37] = second compound 0.1 µM, first compound 0.00316 µM
[38] = second compound 0.1 µM, first compound 0.01 µM
[39] = second compound 0.316 µM, first compound 0.000316 µM
[40] = second compound 0.316 µM, first compound 0.001 µM
[41] = second compound 0.316 µM, first compound 0.00316 µM
[42] = second compound 0.316 µM, first compound 0.01 µM
[43] = second compound 1 µM, first compound 0.000316 µM
[44] = second compound 1 µM, first compound 0.001 µM
[45] = second compound 1 µM, first compound 0.00316 µM
[46] = second compound 1 µM, first compound 0.01 µM
[47] = second compound 3.16 µM, first compound 0.000316 µM
[48] = second compound 3.16 µM, first compound 0.001 µM
[49] = second compound 3.16 µM, first compound 0.00316 µM
[50] = second compound 3.16 µM, first compound 0.01 µM
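Also: compound exposure lasted 7 days before the readout.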
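For viability, T/C in this document: 100% = DMSO vehicle control viability.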

Row | SMILES | IC50 (second compound 0.0316 µM) | IC50 (second compound 0.1 µM) | IC50 (second compound 0.316 µM) | IC50 (second compound 1 µM) | IC50 (second compound 3.16 µM) | viability, T/C [1] | viability, T/C [2] | viability, T/C [3] | viability, T/C [4] | viability, T/C [5] | viability, T/C [6] | viability, T/C [7] | viability, T/C [8] | viability, T/C [9] | viability, T/C [13] | viability, T/C [14] | viability, T/C [19] | viability, T/C [20] | viability, T/C [25] | viability, T/C [26] | further results
1 | CC(C)NCC(C(=O)N1CCN(c2ncnc3c2C(C)CC3O)CC1)c1ccc(Cl)cc1 (stereo not given) + C=CC(=O)N1CCN(c2nc(OCC3CCCN3C)nc3c2CCN(c2cccc4cccc(C)c24)C3)CC1CC#N | > 10000 nM | 6280 nM | 5100 nM | 1810 nM | < 31.6 nM | 111% | 86% | 72.4% | 79.8% | 64.3% | 50% | 96.8% | 86.4% | 83.1% | 100% | 89.6% | 79.4% | 83.1% | 1.12% | 0.47% | viability, T/C [10]: 101%; viability, T/C [11]: 62.1%; viability, T/C [12]: 41.8%; viability, T/C [15]: 95.4%; viability, T/C [16]: 64.7%; viability, T/C [17]: 73%; viability, T/C [18]: 30.4%; viability, T/C [21]: 64.5%; viability, T/C [22]: 60.1%; viability, T/C [23]: 42.2%; viability, T/C [24]: 18.4%; viability, T/C [27]: 0.29%; viability, T/C [28]: 0.37%; viability, T/C [29]: 0.61%; viability, T/C [30]: 0.46%
2 | CC(C)n1nc(-c2ccc3oc(N)nc3c2)c2c(N)ncnc21 + C=CC(=O)N1CCN(c2nc(OCC3CCCN3C)nc3c2CCN(c2cccc4cccc(C)c24)C3)CC1CC#N | 7.3 nM | 6.23 nM | 7.32 nM | 5.74 nM | < 0.316 nM | 26.6% | 21.8% |  |  |  |  | 22.6% | 19.9% |  | 22.7% | 18.3% | 24.8% | 21.6% | 0.27% | 1.47% | viability, T/C [31]: 91.9%; viability, T/C [32]: 89.1%; viability, T/C [33]: 71.1%; viability, T/C [34]: 41.9%; viability, T/C [35]: 111%; viability, T/C [36]: 91.8%; viability, T/C [37]: 65.2%; viability, T/C [38]: 40.7%; viability, T/C [39]: 89.6%; viability, T/C [40]: 95.9%; viability, T/C [41]: 67.1%; viability, T/C [42]: 44.6%; viability, T/C [43]: 106%; viability, T/C [44]: 78.2%; viability, T/C [45]: 62.9%; viability, T/C [46]: 41.6%; viability, T/C [47]: 18.4%; viability, T/C [48]: 0.63%; viability, T/C [49]: 13.2%; viability, T/C [50]: 0.24%
3 | CC1(C)CCC(CN2CCN(c3ccc(C(=O)NS(=O)(=O)c4ccc(NCC5CCOCC5)c([N+](=O)[O-])c4)c(Oc4cnc5[nH]ccc5c4)c3)CC2)=C(c2ccc(Cl)cc2)C1 + C=CC(=O)N1CCN(c2nc(OCC3CCCN3C)nc3c2CCN(c2cccc4cccc(C)c24)C3)CC1CC#N | 1960 nM | 2360 nM | 1900 nM | 1550 nM | < 31.6 nM | 107% | 93.6% | 102% | 83% | 26.2% | 0.37% | 110% | 120% | 97.5% | 114% | 94.8% | 102% | 84.3% | 0.38% | 0.51% | viability, T/C [10]: 106%; viability, T/C [11]: 31%; viability, T/C [12]: 0.82%; viability, T/C [15]: 89.3%; viability, T/C [16]: 94.6%; viability, T/C [17]: 14.8%; viability, T/C [18]: 0.28%; viability, T/C [21]: 94.5%; viability, T/C [22]: 78%; viability, T/C [23]: 4.65%; viability, T/C [24]: 0.18%; viability, T/C [27]: 0.75%; viability, T/C [28]: 0.2%; viability, T/C [29]: 0.34%; viability, T/C [30]: 0.26%
4 | Cn1ncnc1[C@H]1c2n[nH]c(=O)c3cc(F)cc(c23)N[C@@H]1c1ccc(F)cc1 + C=CC(=O)N1CCN(c2nc(OCC3CCCN3C)nc3c2CCN(c2cccc4cccc(C)c24)C3)CC1CC#N | > 100 nM | > 100 nM | > 100 nM | > 100 nM | < 0.316 nM | 77.2% | 80.7% |  |  |  |  | 78.2% | 67.3% |  | 69.8% | 66.3% | 68.8% | 69.9% | 0.64% | 8.16% | viability, T/C [31]: 118%; viability, T/C [32]: 89.7%; viability, T/C [33]: 90%; viability, T/C [34]: 75.5%; viability, T/C [35]: 102%; viability, T/C [36]: 90.9%; viability, T/C [37]: 69.8%; viability, T/C [38]: 77.9%; viability, T/C [39]: 89.9%; viability, T/C [40]: 66.3%; viability, T/C [41]: 89.9%; viability, T/C [42]: 86%; viability, T/C [43]: 76%; viability, T/C [44]: 76.5%; viability, T/C [45]: 68.5%; viability, T/C [46]: 80.8%; viability, T/C [47]: 1.48%; viability, T/C [48]: 4.65%; viability, T/C [49]: 3.13%; viability, T/C [50]: 15.2%
